The results in this text go back to ChEMBL document CHEMBL1201862, “PubChem BioAssay data set” (2004).

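How tested: cells in 96-well plates exposed to compound for 48 hours at five concentrations. Abbreviation: GI50, concentration required for 50% inhibition of growth.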 Activity calls are given as the source filed them. Rule as the data show it: active = GI50 up to about 1.1 µM and inactive = higher.

Test systems include 786-0; ACHN; MDA-MB-231; RPMI-8226; NCI-H460; MDA-N; RXF 393; HCT-15; TK-10; DU-145; UACC-62; SK-MEL-28; KM12; NCI-H522; OVCAR-8; SNB-19; CAKI-1; MCF7; EKVX; UACC-257.
Holding throughout (experiment): NCI tumour cell line growth inhibition, 48 h

On to `CNC(=O)CCC(NC(=O)OC(C)(C)C)C(=O)NC(Cc1ccc(NC(=O)CCCCC(C)=O)cc1)C(=O)NCC(=O)NC` (stereo not given), for which the GI50 with 786-0, in the experiment with ACHN, in the experiment on MDA-MB-231, in the experiment on RPMI-8226, in the experiment on NCI-H460 and with MDA-N was > 100 µM (inactive) in each case. Besides, the GI50 in the experiment with RXF 393 was > 100 µM (inactive); with HCT-15, above 100 µM; in the experiment on TK-10, > 100 µM (inactive); in the experiment with DU-145, > 100 µM (inactive); in the experiment with UACC-62 it was > 100 µM (inactive); in the experiment on SK-MEL-28 it was > 100 µM (inactive). The GI50 in the experiment on KM12, in the experiment on NCI-H522, in the experiment on OVCAR-8, in the experiment on SNB-19, with CAKI-1 and in the experiment with MCF7 was > 100 µM (inactive) throughout. The GI50 with EKVX is > 100 µM (inactive).
As for `COC(=O)c1c2c(cc3c1CC1(Cc4cc5c(c(C=O)c4C1)CCC5)C3)CCC2` (stereo not given), the GI50 in the experiment on 786-0 is 29.4 µM (inactive); with UACC-257 it was 21.2 µM (inactive); with ACHN, 32.9 µM (inactive); with MDA-MB-231 it was 28.4 µM (inactive); in the experiment with RPMI-8226, 55.1 µM (inactive); in the experiment with NCI-H460, 45 µM (inactive). For the same compound, the GI50 is 34 µM (inactive) in the experiment on MDA-N; 30.7 µM (inactive) with RXF 393; 40.3 µM with HCT-15; 98.4 µM (inactive) in the experiment with TK-10; 38.1 µM (inactive) with DU-145; 52.5 µM (inactive) with SK-MEL-28. Moreover, the GI50 is 17.3 µM (inactive) in the experiment on NCI-H522; 42.8 µM (inactive) in the experiment on OVCAR-8; 44.7 µM (inactive) in the experiment with SNB-19; > 100 µM (inactive) in the experiment on CAKI-1; 42 µM (inactive) in the experiment on MCF7; 62.1 µM (inactive) in the experiment on EKVX.
`CC(=O)OCC12C(=O)C[C@@H](C)C3(CC(c4ccoc4)OC3=O)C1CCC(OC(C)=O)C21CO1` (stereo not given in full): the GI50 in the experiment on 786-0, in the experiment on UACC-257, in the experiment on ACHN, with MDA-MB-231, in the experiment with RPMI-8226 and with NCI-H460 was > 100 µM (inactive) in each case. The GI50 in the experiment on MDA-N is > 100 µM (inactive); in the experiment with RXF 393 it was 87.3 µM (inactive); in the experiment with HCT-15, above 100 µM; in the experiment on TK-10, > 100 µM (inactive); with DU-145 it was > 100 µM (inactive); in the experiment on UACC-62 it was > 100 µM (inactive). The GI50 with SK-MEL-28, in the experiment on KM12, in the experiment with NCI-H522, in the experiment with OVCAR-8, in the experiment with SNB-19 and with CAKI-1 was > 100 µM (inactive) in each case. The GI50 in the experiment on MCF7 is > 100 µM (inactive).
Turning to `COc1ccc(CSC2=C(C#N)C(=O)NC3(CCCCC3)S2)cc1`, the GI50 in the experiment on 786-0 is 64.1 µM (inactive); with UACC-257, > 81.7 µM (inactive); in the experiment with ACHN, > 93.5 µM (inactive); with MDA-MB-231, > 76.4 µM (inactive); with RPMI-8226, > 56.6 µM (inactive); in the experiment on NCI-H460, 69 µM (inactive). The GI50 in the experiment with MDA-N was 22.4 µM (inactive); in the experiment on RXF 393, 30.5 µM (inactive); in the experiment with HCT-15, 57.8 µM; in the experiment on TK-10, > 95.5 µM (inactive); in the experiment with DU-145, > 85.7 µM (inactive); in the experiment on UACC-62 it was 61.4 µM (inactive). The GI50 is > 73.6 µM (inactive) in the experiment on SK-MEL-28; 24.2 µM (inactive) with NCI-H522; > 59.3 µM (inactive) with OVCAR-8; 54.5 µM (inactive) in the experiment with SNB-19; 77.6 µM (inactive) in the experiment on CAKI-1; 34.2 µM (inactive) in the experiment with MCF7. Also, the GI50 with EKVX is 54 µM (inactive).
For the compound `O=[N+]([O-])c1cc(C2ON=C(c3ccccc3)N2C23CC4CC(CC(C4)C2)C3)ccc1Cl` (stereo not given), the GI50 with 786-0, with UACC-257, with ACHN, in the experiment on MDA-MB-231, in the experiment with RPMI-8226 and in the experiment with NCI-H460 was > 100 µM (inactive) each time. The GI50 in the experiment on MDA-N was > 100 µM (inactive); in the experiment with RXF 393, > 100 µM (inactive); in the experiment on HCT-15 it was above 100 µM; in the experiment with TK-10 it was > 100 µM (inactive); with DU-145, > 100 µM (inactive); in the experiment with SK-MEL-28 it was > 100 µM (inactive). The GI50 in the experiment with KM12 is > 100 µM (inactive); with NCI-H522, > 100 µM (inactive); in the experiment with OVCAR-8 it was > 100 µM (inactive); in the experiment with SNB-19 it was > 100 µM (inactive); with CAKI-1, > 100 µM (inactive); with MCF7 it was 2.74 µM (inactive). Further, the GI50 with EKVX was > 100 µM (inactive).
On to `OC(C#CCN1CCCC1)(c1ccccc1)c1ccccc1Cl` (stereo not given), for which the GI50 was > 10 µM (inactive) in the experiment on 786-0; 20.7 µM (inactive) in the experiment on UACC-257; 23.9 µM (inactive) in the experiment with ACHN; 47.1 µM (inactive) in the experiment with MDA-MB-231; 39.2 µM (inactive) with RPMI-8226; 20.2 µM (inactive) in the experiment on NCI-H460. Also, the GI50 in the experiment on MDA-N is 23 µM (inactive); in the experiment on RXF 393 it was 46.8 µM (inactive); in the experiment on HCT-15, 68.5 µM; in the experiment with TK-10, 50.8 µM (inactive); in the experiment on DU-145, > 100 µM (inactive); with UACC-62 it was 27.2 µM (inactive). The GI50 with SK-MEL-28 is 17.1 µM (inactive); in the experiment with KM12, 27.5 µM (inactive); in the experiment with NCI-H522, 22.6 µM (inactive); with OVCAR-8, 33.8 µM (inactive); in the experiment on CAKI-1, 24.8 µM (inactive); in the experiment with MCF7, 17.9 µM (inactive). The GI50 with EKVX is 48.5 µM (inactive).
With `CC(C)Cc1c(C#N)c(C#N)c(N)n1Cc1ccccc1`, the GI50 is > 100 µM (inactive) with 786-0; > 100 µM (inactive) in the experiment on UACC-257; 82.4 µM (inactive) with ACHN; > 100 µM (inactive) in the experiment on MDA-MB-231; > 100 µM (inactive) in the experiment with RPMI-8226; > 100 µM (inactive) with MDA-N. The GI50 in the experiment with RXF 393 was > 100 µM (inactive); in the experiment on HCT-15, above 100 µM; with TK-10, > 100 µM (inactive); in the experiment with DU-145 it was > 100 µM (inactive); in the experiment on UACC-62, 55.5 µM (inactive); with KM12, > 100 µM (inactive). In addition, the GI50 in the experiment on NCI-H522, with OVCAR-8, in the experiment with SNB-19, with CAKI-1, with MCF7 and with EKVX was > 100 µM (inactive) throughout.
As to `COc1cccc2c(NNc3ccc(Cl)cc3)c3ccc([N+](=O)[O-])cc3nc12`, the GI50 in the experiment with 786-0 is 8.97 µM (inactive); with UACC-257, 19.2 µM (inactive); with ACHN it was 5.68 µM (inactive); in the experiment on MDA-MB-231, 12.7 µM (inactive); with RPMI-8226 it was 14.3 µM (inactive); in the experiment on NCI-H460, 4.92 µM (inactive). For the same compound, the GI50 was 36.4 µM (inactive) in the experiment on MDA-N; 14.7 µM (inactive) with RXF 393; 8.59 µM in the experiment on HCT-15; 10.3 µM (inactive) with TK-10; 9.84 µM (inactive) in the experiment on DU-145; 8.38 µM (inactive) with UACC-62. Further, the GI50 in the experiment on SK-MEL-28 is 39.7 µM (inactive); in the experiment on KM12 it was 18.7 µM (inactive); with NCI-H522 it was 6.07 µM (inactive); in the experiment on SNB-19, 14.8 µM (inactive); with CAKI-1, 2.28 µM (inactive); in the experiment on MCF7 it was 19.2 µM (inactive). In the experiment with EKVX, the GI50 was 12.5 µM (inactive).
